The results in this text go back to US20220380320A1 (priority 2019, published 2022).

In one data set the test system is MERS-CoV. As to the kind of experiment: microbe, parasite or virus in culture. It counts as cell-based. Conditions: for pEC50: Middle East respiratory syndrome-related coronavirus, Vero, 24 h.
The next data set is described as follows: in vitro. The settings on record: African green monkey.

pEC50: −log10 of the molar value. Bounds are passed on as bounds.

In the data set on MERS-CoV, `Cc1cccc(C[C@@H](C(=O)N[C@@H](Cc2ccccc2)C[C@H](O)[C@H](Cc2ccccc2)NC(=O)COc2c(C)cccc2C)N2CCCNC2=O)c1` [Compound 5, (S)-N-((2S,4S,5S)-5-(2-(2,6-dimethylphenoxy)acetamido)-4-hydroxy-1,6-diphenylhexane-2-yl)-2-(2-oxotetrahydropyrimidin-1(2H)-yl)-3-(m-tolyl)propanamide] showed an SI of 17.91 and a pEC50 of 5.55. The compound further showed a CC50 in the data set “in vitro” above 50 µM. The “toxicity to host cells” value in the data set with vero cells (ATCC CCL-81) is reported as “minimal toxicity”.
Taken in the same sequence, the figures for `Cc1cccc(C)c1OCC(=O)N[C@@H](Cc1ccccc1)[C@@H](O)C[C@H](Cc1ccccc1)NC(=O)C1(N2CCCNC2=O)CCCC1` [Compound 4, N-((2S,4S,5S)-5-(2-(2,6-dimethylphenoxy)acetamido)-4-hydroxy-1,6-diphenylhexan-2-yl)-1-(2-oxotetrahydropyrimidine-1 (2H)-yl) cyclopentanecarboxamide] were 6.53, 5.12, above 50 µM and “minimal toxicity”.
Take `Cc1cccc(C)c1OCC(=O)N[C@@H](Cc1ccccc1)[C@@H](O)C[C@H](Cc1ccccc1)NC(=O)[C@](C)(C(C)C)N1CCCNC1=O` [Compound 2, (S)-N-((2S,4S,5S)-5-(2-(2,6-dimethylphenoxy)acetamido)-4-hydroxy-1,6-diphenylhexane-2-yl)-2,3-dimethyl-2-(2-oxotetrahydropyrimidin-1(2H)-yl)butanamide]: the CC50 in the data set “in vitro” is above 50 µM. Moreover, the “toxicity to host cells” value in the data set on vero cells (ATCC CCL-81) was “minimal toxicity”.
In the data set with MERS-CoV, `Cc1cccc(C)c1OCC(=O)N[C@@H](Cc1ccccc1)[C@@H](O)C[C@H](Cc1ccccc1)NC(=O)[C@H](Cc1cccs1)N1CCCNC1=O` [Compound 10, (S)-N-((2S,4S,5S)-5-(2-(2,6-dimethylphenoxy)acetamido)-4-hydroxy-1,6-diphenylhexane-2-yl)-2-(2-oxotetrahydropyrimidin-1(2H)-yl)-3-(thiophen-2-yl)propenamide] had an SI of 15.06 and a pEC50 of 5.48. The CC50 in the data set “in vitro” was above 50 µM. Moreover, the “toxicity to host cells” value in the data set with vero cells (ATCC CCL-81) is given as “minimal toxicity”.
In the data set on MERS-CoV, `Cc1cccc(C)c1OCC(=O)N[C@@H](Cc1ccccc1)[C@@H](O)C[C@H](Cc1ccccc1)NC(=O)[C@H](C(C)C)N1CCCNC1=O` [Positive control, Lopinavir, reference compound] had an SI of 4.78 and a pEC50 of 4.98. For the same compound, the CC50 in “in vitro” is above 50 µM.
In the data set on MERS-CoV, `Cc1cccc(C)c1OCC(=O)N[C@@H](Cc1ccccc1)[C@@H](O)C[C@H](Cc1ccccc1)NC(=O)[C@H](Cc1ccc(F)cc1)N1CCCNC1=O` [Compound 7, (S)-N-((2S,4S,5S)-5-(2-(2,6-dimethylphenoxy)acetamido)-4-hydroxy-1,6-diphenylhexane-2-yl)-3-(4-fluorophenyl)-2-(2-oxotetrahydropyrimidin-1(2H)-yl)propanamide] gave an SI of 23.96 and a pEC50 of 5.68. This compound displayed a CC50 in “in vitro” above 50 µM. Besides, the “toxicity to host cells” value in the data set with vero cells (ATCC CCL-81) is reported as “minimal toxicity”.
`Cc1cccc(C)c1OCC(=O)N[C@@H](Cc1ccccc1)[C@@H](O)C[C@H](Cc1ccccc1)NC(=O)[C@@](C)(C(C)C)N1CCCNC1=O` [Compound 3, (R)-N-((2S,4S,5S)-5-(2-(2,6-dimethylphenoxy)acetamido)-4-hydroxy-1,6-diphenylhexane-2-yl)-2,3-dimethyl-2-(2-oxotetrahydropyrimidin-1(2H)-yl)butanamide] gave a CC50 in “in vitro” above 50 µM. In addition, the “toxicity to host cells” value in the data set with vero cells (ATCC CCL-81) is on record as “minimal toxicity”.
With `Cc1cccc(C)c1OCC(=O)N[C@@H](Cc1ccccc1)[C@@H](O)C[C@H](Cc1ccccc1)NC(=O)[C@H](Cc1ccccc1)N1CCCNC1=O` [Compound 1, (S)-N-((2S,4S,5S)-5-(2-(2,6-dimethylphenoxy)acetamido)-4-hydroxy-1,6-diphenylhexane-2-yl)-2-(2-oxotetrahydropyrimidin-1(2H)-yl)-3-phenylpropanamide], in the data set on MERS-CoV, the SI turned out to be 21.74 and the pEC50 was 5.69. Moreover, the CC50 in the data set “in vitro” was above 50 µM. In addition, the “toxicity to host cells” value in the data set on vero cells (ATCC CCL-81) was “minimal toxicity”.
In the data set with MERS-CoV, `Cc1cccc(C)c1OCC(=O)N[C@@H](Cc1ccccc1)[C@@H](O)C[C@H](Cc1ccccc1)NC(=O)[C@H](Cc1ccc(C#N)cc1)N1CCCNC1=O` [Compound 9, (S)-3-(4-cyanophenyl)-N-((2S,4S,5S)-5-(2-(2,6-dimethylphenoxy)acetamido)-4-hydroxy-1,6-diphenylhexan-2-yl)-2-(2-oxotetrahydropyrimidin-1(2H)-yl)propanamide] had an SI of 19.33 and a pEC50 of 5.59. In the data set “in vitro”, this compound gave a CC50 above 50 µM. Further, the “toxicity to host cells” value with vero cells (ATCC CCL-81) is reported as “minimal toxicity”.
In the same order, the values of `Cc1cccc(C)c1OCC(=O)N[C@@H](Cc1ccccc1)[C@@H](O)C[C@H](Cc1ccccc1)NC(=O)[C@H](Cc1ccc(C(F)(F)F)cc1)N1CCCNC1=O` [Compound 8, (S)-N-((2S,4S,5S)-5-(2-(2,6-dimethylphenoxy)acetamido)-4-hydroxy-1,6-diphenylhexane-2-yl)-2-(2-oxotetrahydropyrimidin-1(2H)-yl)-3-(4-(trifluoromethyl)phenyl)propanamide] are 40.88, 5.91, above 50 µM and “minimal toxicity”.

As usually defined, the pEC50 is the EC50 on a negative log10 scale, so that one unit is a factor of ten.
